For data set [1], the target named is T1, Amyloid-beta precursor protein (Homo sapiens, UniProt P05067). In words: Displacement of [3H]PIB from human amyloid beta (1 to 40) after 30 mins by liquid scintillation counting.
Data set [2] is described as follows: Lipophilicity, log D of the compound. It is filed as physicochemical. Conditions: octanol/water.
The target in data set [3] is T1, Amyloid-beta precursor protein. In words: Binding affinity to Abeta (1 to 40) in brain cortex of patient with Alzheimer's disease by autoradiography relative to non-specific unlabelled PIB binding. Conditions: tested as the 3H-labelled form. It is filed as tissue-based.
In data set [4] the test system is Mus musculus. The data set is described as follows: Ex vivo binding affinity to amyloid beta (1 to 40) of APP/PS1 transgenic mouse brain at 10.3 nmol/kg, iv after 10 mins by autoradiography. In kind it is functional, organism-based. Particulars: tested as the 3H-labelled form.

Activity calls are given as the source filed them. The calls are words filed in the database; no cut-off is given here.

T1 sequence (P05067 whole entry): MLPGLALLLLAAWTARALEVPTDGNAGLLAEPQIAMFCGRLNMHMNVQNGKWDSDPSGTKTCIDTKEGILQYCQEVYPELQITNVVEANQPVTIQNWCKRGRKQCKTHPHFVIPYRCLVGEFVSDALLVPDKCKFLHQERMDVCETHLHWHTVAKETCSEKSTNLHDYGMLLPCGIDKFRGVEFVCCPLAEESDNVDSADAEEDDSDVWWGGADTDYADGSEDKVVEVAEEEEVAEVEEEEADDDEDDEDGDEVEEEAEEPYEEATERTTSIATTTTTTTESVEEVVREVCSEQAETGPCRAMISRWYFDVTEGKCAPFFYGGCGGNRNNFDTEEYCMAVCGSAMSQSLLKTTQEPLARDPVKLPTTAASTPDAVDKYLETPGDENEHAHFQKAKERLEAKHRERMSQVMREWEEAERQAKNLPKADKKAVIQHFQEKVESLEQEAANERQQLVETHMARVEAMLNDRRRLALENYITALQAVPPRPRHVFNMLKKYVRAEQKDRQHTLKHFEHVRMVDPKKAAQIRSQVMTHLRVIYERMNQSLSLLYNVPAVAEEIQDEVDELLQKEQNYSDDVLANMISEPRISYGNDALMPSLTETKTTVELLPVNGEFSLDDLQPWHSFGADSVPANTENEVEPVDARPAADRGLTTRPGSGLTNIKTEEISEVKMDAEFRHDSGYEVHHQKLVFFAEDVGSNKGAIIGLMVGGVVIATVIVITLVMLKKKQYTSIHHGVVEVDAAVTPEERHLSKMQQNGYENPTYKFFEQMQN

`COc1ccc2cc(-c3ccc(C(N)=O)cn3)oc2c1` registered an IC50 in data set [1] of 33 nM. The compound further came in with a log distribution coefficient (logD) in data set [2] of 2.8.

For the compound `[3H]N(c1ccc(-c2nc3ccc(O)cc3o2)cn1)C([3H])([3H])[3H]`, the IC50 in data set [1] amounted to 182 nM. Besides, in data set [2], the logD came to 1.3.

For `[3H]C([3H])([3H])N(c1ccc(-c2nc3ccc(OC)cc3o2)cn1)C([3H])([3H])[3H]`, the IC50 in data set [1] came to 204 nM. The compound also displayed a logD in data set [2] of 3.7.

Regarding `COc1ccc2nc(-c3ccc(N(C)C)nc3)oc2c1`, the result in data set [3] was inactive.

For the compound `[3H]N(c1ccc(-c2nc3ccc(O)cc3s2)cn1)C([3H])([3H])[3H]`, the IC50 in data set [1] is 58 nM. Besides, in data set [2], the logD turned out to be 1.8.

In data set [1], `CNc1ncc(-c2nc3ccc(O)cc3s2)cn1` gave an IC50 of 267 nM. The logD in data set [2] stood at 0.9.

As to `CN(C)c1ccc(-c2nc3cc(O)ccc3o2)cn1`, the half-maximal inhibitory concentration (IC50) in data set [1] came out at 137 nM. Further, the log distribution coefficient (logD) in data set [2] is 2.2.

In data set [1], `CNc1ccc2nc(-c3ccc(C(N)=O)nc3)sc2c1` displayed an IC50 of 35 nM. In data set [2], this compound gave a pH-dependent lipophilicity (logD) of 1.7.

On to `CNc1ccc(-c2nc3ccc(C(N)=O)cc3s2)cn1`, for which the IC50 in data set [1] amounted to 85 nM. The logD in data set [2] turned out to be 0.5.

In data set [1], `CNc1ccc(-c2cc3ccc(O)cc3o2)cn1` had an IC50 of 45 nM. Also, in data set [2], the logD was found to be 2.

Regarding `CNc1ccc(-c2nc3ccc(O)cc3s2)cn1`, the outcome in data set [3] and in data set [4] was Active.

With `[3H]C([3H])([3H])N(c1ncc(-c2nc3ccc(O)cc3o2)cn1)C([3H])([3H])[3H]`, the IC50 in data set [1] was determined as 75 nM. In data set [2], this compound had a logD of 1.8.

`CNc1ccc(-c2nc3ccc(OC)cc3o2)cn1` displayed a logD in data set [2] of 2.7.

`CNc1ccc(-c2cc3ccc(OC)cc3o2)cn1` returned an IC50 in data set [1] of 66 nM. Also, the logD in data set [2] worked out at 3.8.

Regarding `COc1ccc2cc(-c3ccc(C(N)=O)nc3)oc2c1`, the IC50 in data set [1] was 60 nM. In data set [2], the logD came out at 1.7.

The compound `[3H]C([3H])([3H])N(c1ccc(-c2nc3ccc(O)cc3o2)cn1)C([3H])([3H])[3H]` registered an IC50 in data set [1] of 85 nM. In data set [2], this compound displayed a logD of 1.9.

Consider `CNc1ccc(-c2nc3ccc(OC)cc3s2)cn1`, for which the result in data set [3] was inactive.

In data set [1], `[3H]C([3H])([3H])N(c1ccc(-c2nc3ccc(O)cc3s2)cn1)C([3H])([3H])[3H]` came in with a half-maximal inhibitory concentration (IC50) of 19 nM. Moreover, the logD in data set [2] is 2.4.

As to `CNc1ccc(-c2nc3ccc(O)cc3s2)cc1`, the result in data set [4] was Active.

For the compound `CNc1ccc(-c2nc3ccc(O)cc3o2)cn1`, the outcome in data set [3] and in data set [4] was Active.

With `CN(C)c1ccc(-c2nc3ccc(O)cc3s2)cn1`, the outcome in data set [3] was inactive.

The compound `CNc1ccc(-c2nc3cc(O)ccc3s2)cn1` showed an IC50 in data set [1] of 74 nM. The compound further came in with a log distribution coefficient (logD) in data set [2] of 1.5.

Compound `[3H]N(c1ccc(-c2nc3ccc(OC)cc3s2)cn1)C([3H])([3H])[3H]` returned an IC50 in data set [1] of 58 nM. In addition, in data set [2], the log distribution coefficient (logD) is 3.2.

As to `CN(C)c1ncc(-c2nc3ccc(O)cc3s2)cn1`, the IC50 in data set [1] came out at 41 nM. In data set [2], the logD amounted to 2.2.

Regarding `COc1ccc2nc(-c3ccc(N(C)C)nc3)sc2c1`, the IC50 in data set [1] is 81 nM. In data set [2], this compound came in with a logD of 4.2.

The record behind these values is ChEMBL document CHEMBL1155386, “Synthesis and evaluation of 2-pyridylbenzothiazole, 2-pyridylbenzoxazole and 2-pyridylbenzofuran derivatives as 11C-PET imaging agents for beta-amyloid plaques” (Bioorg Med Chem Lett, 2010).
